Measured values from patent publication US20080085886A1, “Aza-benzofuranyl compounds and methods of use” (GENENTECH, INC., priority 2006, published 2008).

How the values were obtained:
[1] = system: cellular p-ERK in HCT116 human colorectal carcinoma / A375 human malignant melanoma cell lines; assay: Phospho-ERK cell-based assay (ELISA), Example 4; conditions: in either one of the cell lines (HCT116, A375), 2 h or 24 h exposure
Description: Example 4 Phospho-ERK Cell-Based Assay
Compounds are tested in a cell-based phospho-ERK ELISA using the following cell lines:
HCT116 human colorectal carcinoma (ATCC)
(§1) A375 human malignant melanoma (ATCC)
(§2) Both cell lines are maintained in DMEM/F12 (1:1) media (Gibco) supplemented with 10% FCS at 37° C. in a 5% CO2 humidified incubator.
Cells are seeded in 96-well plates at 2,000 cells/well and after 24 h they are exposed to different concentrations of compounds in 0.83% DMSO. Cells are grown for a further 2 h or 24 h, fixed with formaldehyde (2% final) and permeabilised with methanol. Following blocking with TBST-3% BSA, fixed cells are incubated with primary antibody (anti-phospho ERK from rabbit) over-night at 4° C. Cells are incubated with Propidium Iodide (DNA fluorescent dye) and detection of cellular p-ERK is performed using an anti-rabbit secondary antibody conjugated to the fluorescent Alexa Fluor 488 dye (Molecular probes). The fluorescence is analysed using the Acumen Explorer (TTP Labtech), a laser-scanning microplate cytometer, and the Alexa Fluor 488 signal is normalised to the PI signal (proportional to cell number).
The EC50 is defined as the concentration at which a given compound achieves a signal half way between the baseline and the maximum response. EC50 values are calculated using the XLfit software package (version 2.0.5).

[2] = system: HCT 116 human colorectal carcinoma / A375 human malignant melanoma cell lines; assay: Cell proliferation assay (CellTiter-Glo), Example 3; format: cell-based; conditions: in either one of the cell lines (HCT 116, A375), 72 h
Description: Example 3 Cell Proliferation Assay
Compounds are tested in a cell proliferation assay using the following cell lines:
HCT 116 human colorectal carcinoma (ATCC)
as §1, §2
Cells are seeded in 96-well plates at 2,000 cells/well and after 24 hours they are exposed to different concentrations of compounds in 0.83% DMSO. Cells are grown for a further 72 h, and an equal volume of CellTiter-Glo reagent (Promega) is added to each well. This lyses the cells and generates a luminescent signal proportional to the amount of ATP released (and therefore proportional to the number of cells in the well) that can be detected using a multiwell luminometer.
EC50 values are calculated using the XLfit software package (version 2.0.5).

| EC50 [1] | EC50 [2] | Compound |
| --- | --- | --- |
| < 10 µM | < 10 µM | O=C(NOC[C@H](O)CO)c1oc2ccncc2c1Nc1ccc(I)cc1 [Example 12, 3-(4-Iodo-phenylamino)-furo[3,2-c]pyridine-2-carboxylic acid ((R)-2,3-dihydroxy-propoxy)-amide] |
| < 10 µM | < 10 µM | O=C(NOC[C@H](O)CO)c1oc2ccncc2c1Nc1ccc(Br)cc1F [Example 6, 3-(2-Fluoro-4-bromo-phenylamino)-furo[3,2-c]pyridine-2-carboxylic acid ((R)-2,3-dihydroxy-propoxy)-amide] |
| < 10 µM | < 10 µM | CSc1ccc(Nc2c(C(=O)NOCCO)oc3ccncc23)c(F)c1 [Example 35, 3-(2-Fluoro-4-methylsulfanyl-phenylamino)-furo[3,2-c]pyridine-2-carboxylic acid (2-hydroxy-ethoxy)-amide] |
| < 10 µM | < 10 µM | C#Cc1ccc(Nc2c(C(=O)NOC[C@H](O)CO)oc3ccncc23)c(F)c1 [Example 7, 3-(4-Ethynyl-2-fluoro-phenylamino)-furo[3,2-c]pyridine-2-carboxylic acid ((R)-2,3-dihydroxy-propoxy)-amide] |
| < 10 µM | < 10 µM | O=C(NOCCO)c1oc2ccncc2c1Nc1ccc(I)cc1F [Example 10, 3-(2-Fluoro-4-iodo-phenylamino)-furo[3,2-c]pyridine-2-carboxylic acid (2-hydroxy-ethoxy)-amide] |

More lines, now with the values behind:

| Compound | EC50 [1] | EC50 [2] |
| --- | --- | --- |
| O=C(NOCCO)c1oc2c(-c3ccccc3)cncc2c1Nc1ccc(I)cc1F [Example 133, 3-(2-Fluoro-4-iodo-phenylamino)-7-phenyl-furo[3,2-c]pyridine-2-carboxylic acid (2-hydroxy-ethoxy)-amide] | < 10 µM | < 10 µM |
| O=C(c1oc2ccncc2c1Nc1ccc(I)cc1F)N1CC(O)CO1 (centres unmarked) [Example 28, [3-(2-Fluoro-4-iodo-phenylamino)-furo[3,2-c]pyridin-2-yl]-(4-hydroxy-isoxazolidin-2-yl)-methanone] | < 10 µM | < 10 µM |
| Cc1cncc2c(Nc3ccc(I)cc3F)c(C(=O)NOCCO)oc12 [Example 134, 3-(2-Fluoro-4-iodo-phenylamino)-7-methyl-furo[3,2-c]pyridine-2-carboxylic acid (2-hydroxy-ethoxy)-amide] | < 10 µM | < 10 µM |
| O=C(NOCCO)c1oc2c(Cl)cncc2c1Nc1ccc(I)cc1F [Example 39, 7-Chloro-3-(2-fluoro-4-iodo-phenyl-amino)-furo[3,2-c]pyridine-2-carboxylic acid (2-hydroxy-ethoxy)-amide] | < 10 µM | < 10 µM |
| O=C(NOC[C@@H]1CCCN1)c1oc2ccncc2c1Nc1ccc(I)cc1F [Example 141, 3-(2-Fluoro-4-iodo-phenylamino)-furo[3,2-c]pyridine-2-carboxylic acid ((S)-1-pyrrolidin-2-ylmethoxy)-amide] | < 10 µM | < 10 µM |
